Results from patent US6355799B1, “Substituted benzene compounds, process for their preparation, and herbicidal and defoliant compositions containing them” (ISK Americas Incorporated, priority 1997, dated 2002).

Legend:
Assay type in all cases: in vivo
[1] = tested on: redroot pigweed (Amaranthus retroflexus, AMARE); test: Pre-emerge test, greenhouse herbicide activity screening; conditions: for phytotoxicity rating AMARE: 14 days after application, scale 0-100
Outline: (§1)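 Rating: 0–100 visual injury, 14 DAA. Application: acetone, 187 l/ha, 15–1000 g ai/ha, flat-fan track sprayer with nozzle 40–45 cm above soil or canopy. Post-emerge runs used 0.25% v/v surfactant on 2–3 leaf plants.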

[2] = tested on: barnyardgrass (Echinochloa crus-galli, ECHCG); test: as above; conditions: for phytotoxicity rating ECHCG: 14 days after application, scale 0-100
Outline: (§2)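 Plants grown in 10 cm pots of sandy loam mix received acetone-dissolved compounds through a moving flat-fan nozzle. Doses ranged from 15 to 1000 g ai/ha. Pre-emerge pots were seeded one day earlier, post-emerge pots 8–21 days earlier. Fourteen days on, each pot was graded 0–100 for damage.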

[3] = tested on: green foxtail (Setaria viridis, SETVI); test: as above; conditions: for phytotoxicity rating SETVI: 14 days after application, scale 0-100
Outline: as §2

[4] = tested on: ivyleaf morningglory (Ipomoea hederacea, IPOHE); test: as above; conditions: for phytotoxicity rating IPOHE: 14 days after application, scale 0-100
Outline: as §2

[5] = tested on: johnsongrass (Sorghum halepense, SORHA); test: as above; conditions: for phytotoxicity rating SORHA: 14 days after application, scale 0-100
Outline: as §2

[6] = tested on: lambsquarters (Chenopodium album, CHEAL); test: as above; conditions: for phytotoxicity rating CHEAL: 14 days after application, scale 0-100
Outline: as §2

[7] = tested on: large crabgrass (Digitaria sanguinalis, DIGSA); test: as above; conditions: for phytotoxicity rating DIGSA: 14 days after application, scale 0-100
Outline: as §2

[8] = tested on: sicklepod (Cassia obtusifolia, CASOB); test: as above; conditions: for phytotoxicity rating CASOB: 14 days after application, scale 0-100
Outline: as §2

[9] = tested on: velvetleaf (Abutilon theophrasti, ABUTH); test: as above; conditions: for phytotoxicity rating ABUTH: 14 days after application, scale 0-100
Outline: as §2

[10] = tested on: field corn (Zea mays L., var. Dekalb 535, CORN); test: Pre-emerge test, crop safety; conditions: for phytotoxicity rating CORN (crop damage): 14 days after application, scale 0-100
Outline: (§3)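 Fourteen days after spraying, crop and weed injury was graded visually from 0, no effect, to 100, every plant dead. Test substances were dissolved in acetone and applied at 15–1000 g ai/ha with a flat-fan nozzle. Application was either pre-emergence, one day after sowing, or post-emergence at the 2–3 leaf stage.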

[11] = tested on: upland rice (Oryza sp., var. Tebonnet, RICE); test: Pre-emerge test, crop safety; conditions: for phytotoxicity rating RICE (crop damage): 14 days after application, scale 0-100
Outline: as §3

[12] = tested on: barnyardgrass (Echinochloa crus-galli, ECHCG); test: Post-emerge test, greenhouse herbicide activity screening; conditions: post-emerge; for Post-emerge Herbicidal Activity ECHCG: phytotoxicity rating 0-100 at 14 days after application; for ECHCG phytotoxicity rating: 14 days after application, rating scale 0-100
Outline: as §1

[13] = tested on: green foxtail (Setaria viridis, SETVI); test: as above; conditions: post-emerge; for Post-emerge Herbicidal Activity SETVI: phytotoxicity rating 0-100 at 14 days after application; for SETVI phytotoxicity rating: 14 days after application, rating scale 0-100
Outline: as §1

[14] = tested on: ivyleaf morningglory (Ipomoea hederacea, IPOHE); test: as above; conditions: post-emerge; for Post-emerge Herbicidal Activity IPOHE: phytotoxicity rating 0-100 at 14 days after application; for IPOHE phytotoxicity rating: 14 days after application, rating scale 0-100
Outline: as §1

[15] = tested on: johnsongrass (Sorghum halepense, SORHA); test: as above; conditions: post-emerge; for Post-emerge Herbicidal Activity SORHA: phytotoxicity rating 0-100 at 14 days after application; for SORHA phytotoxicity rating: 14 days after application, rating scale 0-100
Outline: as §1

[16] = tested on: lambsquarters (Chenopodium album, CHEAL); test: as above; conditions: post-emerge; for Post-emerge Herbicidal Activity CHEAL: phytotoxicity rating 0-100 at 14 days after application; for CHEAL phytotoxicity rating: 14 days after application, rating scale 0-100
Outline: as §1

[17] = tested on: large crabgrass (Digitaria sanguinalis, DIGSA); test: as above; conditions: post-emerge; for Post-emerge Herbicidal Activity DIGSA: phytotoxicity rating 0-100 at 14 days after application; for DIGSA phytotoxicity rating: 14 days after application, rating scale 0-100
Outline: as §1

[18] = tested on: redroot pigweed (Amaranthus retroflexus, AMARE); test: as above; conditions: post-emerge; for Post-emerge Herbicidal Activity AMARE: phytotoxicity rating 0-100 at 14 days after application; for AMARE phytotoxicity rating: 14 days after application, rating scale 0-100
Outline: as §1

[19] = tested on: sicklepod (Cassia obtusifolia, CASOB); test: as above; conditions: post-emerge; for Post-emerge Herbicidal Activity CASOB: phytotoxicity rating 0-100 at 14 days after application; for CASOB phytotoxicity rating: 14 days after application, rating scale 0-100
Outline: as §1

[20] = tested on: velvetleaf (Abutilon theophrasti, ABUTH); test: as above; conditions: post-emerge; for Post-emerge Herbicidal Activity ABUTH: phytotoxicity rating 0-100 at 14 days after application; for ABUTH phytotoxicity rating: 14 days after application, rating scale 0-100
Outline: as §1

[21] = tested on: field corn (Zea mays L., var. Dekalb 535, CORN); test: Post-emerge test, crop safety; conditions: post-emerge; for Post-emerge Herbicidal Activity CORN: crop damage rating 0-100 at 14 days after application; for CORN phytotoxicity rating (crop damage): 14 days after application, rating scale 0-100
Outline: (§4)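 Each test used a mechanized track sprayer delivering 187 l/ha of acetone solution at 15–1000 g ai/ha. Post-emerge foliage at 2–3 leaves was treated with added 0.25% v/v non-ionic surfactant and bottom-watered only. Injury was assessed on day 14, where 100 means total kill.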

[22] = tested on: upland rice (Oryza sp., var. Tebonnet, RICE); test: Post-emerge test, crop safety; conditions: post-emerge; for Post-emerge Herbicidal Activity RICE: crop damage rating 0-100 at 14 days after application; for RICE phytotoxicity rating (crop damage): 14 days after application, rating scale 0-100
Outline: as §4

[23] = 250 g ai/ha, rating scale 0-100, 14 days after application
[24] = pre-emerge, rate 63 g ai/ha, phytotoxicity rating 0-100 at 14 days after application
[25] = crop damage, pre-emerge, rate 63 g ai/ha, phytotoxicity rating 0-100 at 14 days after application

Nc1c(O)c(Cl)cc(F)c1N1C(=O)C2CCCCN2C1=S (single isomer, unassigned) [12-2]
Pre-emerge herbicidal activity, phytotoxicity rating AMARE [1, 23]: 100
Pre-emerge Herbicidal Activity AMARE [1, 24]: 100
Pre-emerge herbicidal activity, phytotoxicity rating ECHCG [2, 23]: 99
Pre-emerge Herbicidal Activity ECHCG [2, 24]: 40
Pre-emerge herbicidal activity, phytotoxicity rating SETVI [3, 23]: 100
Pre-emerge Herbicidal Activity SETVI [3, 24]: 95
Pre-emerge herbicidal activity, phytotoxicity rating IPOHE [4, 23]: 100
Pre-emerge Herbicidal Activity IPOHE [4, 24]: 95
Pre-emerge herbicidal activity, phytotoxicity rating SORHA [5, 23]: 100
Pre-emerge Herbicidal Activity SORHA [5, 24]: 90
Pre-emerge herbicidal activity, phytotoxicity rating CHEAL [6, 23]: 100
Pre-emerge Herbicidal Activity CHEAL [6, 24]: 100
Pre-emerge herbicidal activity, phytotoxicity rating DIGSA [7, 23]: 100
Pre-emerge Herbicidal Activity DIGSA [7, 24]: 95
Pre-emerge herbicidal activity, phytotoxicity rating CASOB [8, 23]: 100
Pre-emerge Herbicidal Activity CASOB [8, 24]: 99
Pre-emerge herbicidal activity, phytotoxicity rating ABUTH [9, 23]: 100
Pre-emerge Herbicidal Activity ABUTH [9, 24]: 100
Pre-emerge phytotoxicity rating, crop damage CORN [10, 23]: 99
Pre-emerge Herbicidal Activity CORN [10, 25]: 40
Pre-emerge phytotoxicity rating, crop damage RICE [11, 23]: 99
Pre-emerge Herbicidal Activity RICE [11, 25]: 50
Post-emerge Herbicidal Activity ECHCG ([12]; 63 g ai/ha): 30
Post-emerge Herbicidal Activity ECHCG ([12]; 250 g ai/ha): 80
Post-emerge Herbicidal Activity SETVI ([13]; 63 g ai/ha): 0
Post-emerge Herbicidal Activity SETVI ([13]; 250 g ai/ha): 50
Post-emerge Herbicidal Activity IPOHE ([14]; 63 g ai/ha): 90
Post-emerge Herbicidal Activity IPOHE ([14]; 250 g ai/ha): 100
Post-emerge Herbicidal Activity SORHA ([15]; 63 g ai/ha): 10
Post-emerge Herbicidal Activity SORHA ([15]; 250 g ai/ha): 90
Post-emerge Herbicidal Activity CHEAL ([16]; 63 g ai/ha): 100
Post-emerge Herbicidal Activity CHEAL ([16]; 250 g ai/ha): 100
Post-emerge Herbicidal Activity DIGSA ([17]; 63 g ai/ha): 0
Post-emerge Herbicidal Activity DIGSA ([17]; 250 g ai/ha): 70
Post-emerge Herbicidal Activity AMARE ([18]; 63 g ai/ha): 30
Post-emerge Herbicidal Activity AMARE ([18]; 250 g ai/ha): 100
Post-emerge Herbicidal Activity CASOB ([19]; 63 g ai/ha): 50
Post-emerge Herbicidal Activity CASOB ([19]; 250 g ai/ha): 95
Post-emerge Herbicidal Activity ABUTH ([20]; 63 g ai/ha): 100
Post-emerge Herbicidal Activity ABUTH ([20]; 250 g ai/ha): 100
Post-emerge Herbicidal Activity CORN ([21]; 63 g ai/ha): 10
Post-emerge Herbicidal Activity CORN ([21]; 250 g ai/ha): 100
Post-emerge Herbicidal Activity RICE ([22]; 63 g ai/ha): 20
Post-emerge Herbicidal Activity RICE ([22]; 250 g ai/ha): 80

COc1c(Cl)cc(F)c(-n2c(=O)cc(C(F)(F)F)n(C)c2=O)c1NC(=O)C=Cc1ccccc1F [2-125]
phytotoxicity rating AMARE ([1]; pre-emerge, 63 g ai/ha): 100
phytotoxicity rating AMARE ([1]; pre-emerge, 250 g ai/ha): 100
phytotoxicity rating ECHCG ([2]; pre-emerge, 63 g ai/ha): 10
phytotoxicity rating ECHCG ([2]; pre-emerge, 250 g ai/ha): 50
phytotoxicity rating SETVI ([3]; pre-emerge, 63 g ai/ha): 50
phytotoxicity rating SETVI ([3]; pre-emerge, 250 g ai/ha): 90
phytotoxicity rating IPOHE ([4]; pre-emerge, 63 g ai/ha): 0
phytotoxicity rating IPOHE ([4]; pre-emerge, 250 g ai/ha): 100
phytotoxicity rating SORHA ([5]; pre-emerge, 63 g ai/ha): 20
phytotoxicity rating SORHA ([5]; pre-emerge, 250 g ai/ha): 50
phytotoxicity rating CHEAL ([6]; pre-emerge, 63 g ai/ha): 100
phytotoxicity rating CHEAL ([6]; pre-emerge, 250 g ai/ha): 100
phytotoxicity rating DIGSA ([7]; pre-emerge, 63 g ai/ha): 30
phytotoxicity rating DIGSA ([7]; pre-emerge, 250 g ai/ha): 90
phytotoxicity rating CASOB ([8]; pre-emerge, 63 g ai/ha): 30
phytotoxicity rating CASOB ([8]; pre-emerge, 250 g ai/ha): 70
phytotoxicity rating ABUTH ([9]; pre-emerge, 63 g ai/ha): 100
phytotoxicity rating ABUTH ([9]; pre-emerge, 250 g ai/ha): 100
phytotoxicity rating CORN (crop damage) ([10]; pre-emerge, 63 g ai/ha): 0
phytotoxicity rating CORN (crop damage) ([10]; pre-emerge, 250 g ai/ha): 10
phytotoxicity rating RICE (crop damage) ([11]; pre-emerge, 63 g ai/ha): 0
phytotoxicity rating RICE (crop damage) ([11]; pre-emerge, 250 g ai/ha): 45
ECHCG phytotoxicity rating ([12]; 63 g ai/ha): 20
ECHCG phytotoxicity rating ([12]; 250 g ai/ha): 40
SETVI phytotoxicity rating ([13]; 63 g ai/ha): 40
SETVI phytotoxicity rating ([13]; 250 g ai/ha): 60
IPOHE phytotoxicity rating ([14]; 63 g ai/ha): 100
IPOHE phytotoxicity rating ([14]; 250 g ai/ha): 100
SORHA phytotoxicity rating ([15]; 63 g ai/ha): 30
SORHA phytotoxicity rating ([15]; 250 g ai/ha): 40
CHEAL phytotoxicity rating ([16]; 63 g ai/ha): 100
CHEAL phytotoxicity rating ([16]; 250 g ai/ha): 100
DIGSA phytotoxicity rating ([17]; 63 g ai/ha): 20
DIGSA phytotoxicity rating ([17]; 250 g ai/ha): 40
AMARE phytotoxicity rating ([18]; 63 g ai/ha): 100
AMARE phytotoxicity rating ([18]; 250 g ai/ha): 100
CASOB phytotoxicity rating ([19]; 63 g ai/ha): 90
CASOB phytotoxicity rating ([19]; 250 g ai/ha): 100
ABUTH phytotoxicity rating ([20]; 63 g ai/ha): 100
ABUTH phytotoxicity rating ([20]; 250 g ai/ha): 100
CORN phytotoxicity rating (crop damage) ([21]; 63 g ai/ha): 10
CORN phytotoxicity rating (crop damage) ([21]; 250 g ai/ha): 20
RICE phytotoxicity rating (crop damage) ([22]; 63 g ai/ha): 40
RICE phytotoxicity rating (crop damage) ([22]; 250 g ai/ha): 70
